Results on one compound are retold here after patent US12629388B2, “Intradialytic use of sodium nitrite” (Hope Medical Enterprises, Inc., priority 2017, dated 2026).

Like-named read-outs stand apart in the source and are kept apart here.

The procedure of series [1]:
Example 1 was performed to determine the stability of sodium nitrite in aqueous solution when acid is added. A 100 mL sample of sodium nitrite solution with a concentration of 30 mg/mL was tested for the presence of nitrogen oxide gases (NO, NO2, N2O3, and N2O4) using an Orion Model 95-46 Nitrogen Oxide (NOx) electrode and a pH meter. With constant stirring, the mV reading with the NOx electrode and pH reading with the pH electrode were recorded after successive additions of 100 μL of either 0.02 N or 1 N hydrochloric acid.

The conditions of series [2]: dialysate bicarbonate concentrate; for Nitrite Concentration by Assay: room temperature, expected 38.1 mg/L. Here is the method:
(§1) Concentration of nitrite in samples was assayed by ion chromatography. The ion chromatograph was equipped with a conductivity detector, self-regenerating suppression system, eluent generator, and a Dionex IonPacAS19 analytical column. The nitrite concentration in the samples was measured and calculated against an external sodium nitrite standard. USP Sodium Nitrite Reference Standard (Item Number 1614454) was the testing standard (United States Pharmacopeia. Rockville, Maryland).
Example 2 was performed to determine the stability of sodium nitrite in dialysate bicarbonate concentrate solution. At room temperature, 300 mg sodium nitrite was added to 7,700 mL of dialysate bicarbonate concentrate solution. The nitrite concentration of the dialysate bicarbonate concentrate solution was analyzed by ion chromatography 1) before addition of sodium nitrite; 2) 5 minutes after the addition of sodium nitrite; and 3) 2 hours after the addition of sodium nitrite.

The conditions of series [3]: pre-mixed 1 L dialysate, pH 7.32 at 24.4° C. after addition; expected 2.997 mg/L. On the procedure:
as §1

The conditions of series [4]: mixed dialysate exiting Fresenius 2008K hemodialysis machine; expected 1.46 mg/L. Here is the method:
as §1
The machine was primed in bypass mode (dialysate and ultrafiltration rates set at zero) using normal saline.

The conditions of series [5]: for Nitrite Concentration After Addition of Sodium Nitrite (Time = 60 Min): average of two samples. On the procedure:
as §1
Dialysate bicarbonate concentrate solution was prepared by adding 1 package of Centrisol® MB-330 Series Sodium Bicarbonate Concentrate powder (650 g) to 7.7 liters of purified water.
The hemodialysis machine mixed the bicarbonate concentrate solution and acid concentrate solution with the dilution ratio of 1 part of an acid concentrate solution, 1.72 parts of a bicarbonate concentrate solution, and 42.38 parts of purified water. The machine was primed in bypass mode (dialysate and ultrafiltration rates set at zero) using normal saline. After priming, the hemodialysis machine was run in “Therapy Mode” with the following settings: blood flow rate 300 ml/minute, dialysate flow rate 600 mL/minute, ultrafiltration rate 0 mL/minute.
An aqueous solution of sodium nitrite was prepared by dissolving 3 mg of sodium nitrite in 1 liter of purified water. […] This valve was placed in the dialysate tubing approximately eight inches upstream of the dialyzer (pre-filter). Two sampling ports were placed four inches upstream (pre-dialyzer sampling port) and ten inches downstream (post-dialyzer sampling port) from the dialyzer to collect samples of dialysate for […] assay by ion chromatography.
The infusion pump infused the sodium nitrite solution into the tubing through the valve at a rate of 250 mL/hour (4.16 mL/minute).
Normal saline flowed into the dialyzer at a rate of 300 mL/minute from the Arterial line and exited the dialyzer through the Venous line. Samples of saline were collected from the venous side of the dialyzer.

For series [6] the following is noted: during the first hour of hemodialysis; cited from earlier work.

In the case of `O=NO` [Sodium Nitrite, sodium nitrite], in series [1] (30 mg/mL solution, successive addition of hydrochloric acid, detection limit 1 ppm NOx), the “pH at which nitrogen oxides was detected” value is given as 6.7. Also, the “initial pH of the sodium nitrite solution” value in series [1] (100 mL solution, 30 mg/mL, before acid addition) is 8.73. Besides, the “response of the Nitrogen Oxide electrode” value in series [1] (at pH 4.9) came out at 99.5 mV; in series [1] (at pH 6.7) it was 8.0 mV. Besides, the “stability on exposure to acid (in words)” value in series [1] (extent of decomposition generally inversely proportional to the pH) is on record as “decomposes when exposed to acid”. For the same compound, the “Nitrate Concentration” value in series [2] (5 minutes after addition) and in series [2] (2 hours after addition) was “None” each time. The “Nitrite Concentration by Assay” value in series [2] (5 minutes after addition) is listed as 38.0 mg/L; in series [2] (2 hours after addition) it was 38.5 mg/L; in series [3], 1.149 mg/L; in series [4] it was “None”. For the same compound, the “Nitrite Concentration After Addition of Sodium Nitrite (Time = 60 Min)” value was found to be 235 nM in series [5] (dialysate after dialyzer); 451 nM in series [5] (dialysate before dialyzer, 3 mg/L solution infused at 250 mL/hour, dialysate flow 600 mL/minute); 183 nM in series [5] (saline solution after dialyzer (venous side)). In series [5] (infused between the hemodialysis machine and the dialyzer membrane), the “stability when mixed with dialysate within dialysate tubing (in words)” value was “stable”. The “decline of the concentration of nitrite in the plasma” value in series [6] was “over 60%”.
